Assays:
COX-1 mRNA = COX-1 mRNA in human neural progenitor cells; format: cell-based
Method: Human neural (HN) progenitor cells in primary culture. HN cells were grown to ˜70% confluence (˜50,000 cells per 3.5-cm diameter well) in 6-well COSTAR plates at 37° C., 5% CO2/20% O2/75% N2 in humidified air at 1 atm (normoxic conditions) in NPMM medium (Clonetics CC-4241) supplemented with hFGF, NSF-1, hEGF, GA-1000, as described by the manufacturer (Clonetics, Walkersville, Md.). HN cells tested negative for HIV-1, hepatitis B and C, mycoplasma, bacteria, yeast, and fungi, and positive for the glial and neuronal markers GFAP, MAP2, and β-tubulin III (Clonetics). After two weeks of development, HN cells were exposed to human recombinant interleukin 1-beta (IL-1β) (10 ng/ml) for 3 h in the presence or absence of 0.03, 0.3, 3.0, 30, and 300 nM 10,17S-docosatriene (NPD1), DHA, or PBS pH 7.4 (control). RNA and protein were quickly isolated using Trizol Reagent (Invitrogen, Carlsbad, Calif.) and stored at −81° C. within minutes of isolation.
COX-2 RNA abundance in hippocampus and HN cells. Abundance of human-specific COX-1 and COX-2 RNA message was assayed using RT-PCR as described in Bazan, N. G., and Lukiw, W. J. (2002) J. Biol. Chem. 277, 30359-30367.

Bax gene expression = experiment: HGU133 GeneChip DNA array in HN cells: Bax; format: cell-based, human; settings: Aβ42 25 μM, DHA 50 nM or NPD1 50 nM, 18 h, nsc = no significant change
Excerpt: Total RNA quality and abundance were profiled using RNA Nano LabChips (Caliper Technologies, Mountainview, Calif.; Agilent Technologies, Palo Alto, Calif.).
Biotinylated antisense cRNAs were synthesized from cDNA using the Superscript Choice System (Invitrogen) and Enzo Biorray High Yield RNA Transcript Labeling kits according to the manufacturer's protocols (Affymetrix) and as described in Colangelo, V., Schurr, J., Ball, M. J., Pelaez, R. P., Bazan, N. G., Lukiw, W. J. (2002) J. Neurosci. […] Probes were hybridized against HU133Av2 GeneChip DNA arrays that interrogate approximately 33,000 full-length mouse genes and expressed sequence tag (EST) clusters.
DNA arrays were scanned at 570 nm, and significant features were extracted using Data Mining Tool 3.0 (Affymetrix). Data analyses and graphic presentations were performed using Microarray Suite 5.0 (Affymetrix), GeneSpring 6.0 (Silicon Genetics, Redwood City, Calif.) and Adobe Photoshop 6.0 (Adobe Systems, San Jose, Calif.). Volcano plots were plotted representing total gene expression patterns as a function of fold-change as compared to expression patterns of age-matched controls as plotted against p, as calculated by an analysis of variance (ANOVA). […] Statistical significance was analyzed using a two-way factorial analysis of variance (p, ANOVA; Statistical Analysis System; SAS Institute, Cary, N.C. ).

[1] = tested on: myeloperoxidase immunoreactivity (PMN leukocytes); experiment: Immunohistochemistry of myeloperoxidase after MCA-O; format: in vivo, mouse; settings: infusion 0.4 μg over 48 h; 1 h MCA-O, 48 h reperfusion
Method: Immunohistochemistry of myeloperoxidase to assess leukocyte infiltration. After MCA-O, mice were infused by Alzet mini-pumps with vehicle or 10,17S-docosatriene (NPD1). After 48 h, mice were anesthetized and killed by intracardial perfusion of ice-cold saline followed by 10% neutral buffered formalin. Brain tissues were allowed to equilibrate overnight in 4% buffered formalin, followed by 30% sucrose in 0.1 M PBS. Frozen sections were made at 10 μm thickness and mounted on glass slides. Sections were permeablized with 0.6% Triton X-100 for 10 min, washed in PBS, and blocked in 2% goat serum in PBS for 30 min. Incubation with myeloperoxidase/FITC-conjugated antibody (DAKO A/S, Denmark) was performed at 1:200 dilution for 2 h. Sections were washed in Tween-20 in PBS then mounted in Vectashield (Vector, Calif.). Images were recorded by deconvolution microscope (Intelligent Imaging Innovations, Denver, Colo.).
To determine whether 10,17S-docosatriene (NPD1) affected brain ischemia-reperfusion-induced PMN infiltration, either DHA or 10,17S-docosatriene (NPD1) was constantly infused into the third ventricle of a mouse brain during 48 h of reperfusion. […] The data shown represent averages± SD of the indicated number (n) of individual mice. Immunocytochemical changes in polymorphonuclear leukocytes were shown by a green fluorescence that indicated myeloperoxidase immunoreactivity. […]

[2] = tested on: IL-1β-induced HIF-1α activation; experiment: EMSA of HIF-1α in IL-1β-exposed human neural progenitor cells; format: cell-based; settings: HN progenitor cells; IL-1β 10 ng/ml 3 h
Method: Human neural (HN) progenitor cells in primary culture. HN cells were grown to ˜70% confluence (˜50,000 cells per 3.5-cm diameter well) in 6-well COSTAR plates at 37° C., 5% CO2/20% O2/75% N2 in humidified air at 1 atm (normoxic conditions) in NPMM medium (Clonetics CC-4241) supplemented with hFGF, NSF-1, hEGF, GA-1000, as described by the manufacturer (Clonetics, Walkersville, Md.). HN cells tested negative for HIV-1, hepatitis B and C, mycoplasma, bacteria, yeast, and fungi, and positive for the glial and neuronal markers GFAP, MAP2, and β-tubulin III (Clonetics). […]
Electrophoretic mobility-shift assay (EMSA) of human AP1, HIF-1α, NF-κBp50/p65, and STAT-1α. Nuclear protein extracts (NPXTs) were prepared from one to three 3.5 cm-diameter wells of HN cells and quantitated. NPXTs (5 μg) derived from HN cells were incubated with[γ-^32P]-ATP (˜3000 Ci/mmol)-end-labeled AP1, HIF-1α, NF-κκBp50/p65, or STAT-1α consensus and mutant oligonucleotides in 5-μl volumes, reacted for 30 min on ice, analyzed on 5% or 10% acrylamide/90 mM Tris-borate pH 8.4, 1 mM EDTA (TBE) gels, dried onto 2-mm Whatman filter paper at 80° C. for 2 h, and phosphorimaged using a Typhoon Variable Mode Imager (Amersham Pharmacia Biotech, Piscataway, N.J. ).

Bcl-2 gene expression = experiment: HGU133 GeneChip DNA array in HN cells: Bcl-2; format: cell-based, human; settings: Aβ42 25 μM, DHA 50 nM or NPD1 50 nM, 18 h, nsc = no significant change

CC/C=C\C[C@H](O)\C=C/C=C/C=C/[C@H](O)C/C=C\C/C=C\CCC(=O)O [NPD1, 10,17S-docosatriene]
effect on basal level of COX-1 mRNA (COX-1 mRNA): seemed to decrease
Bax gene expression, fold change over untreated controls (Bax gene expression): nsc
green fluorescence (myeloperoxidase immunoreactivity), ipsilateral brain [1]: surprisingly large reduction
effect on IL-1β-induced HIF-1α activation [2]: but not IL-1β-induced HIF-1α activation, was inhibited
Bcl-2 gene expression, fold change over untreated controls (Bcl-2 gene expression): +3.3 fold

From patent US20050075398A1, “Neuroprotectin D1 protects against cellular apoptosis, stroke damage, alzheimer's disease and retinal diseases” (priority 2003, published 2005)
